“Also recorded” adds a separate entry of the source.
Legend:
LIF/LIFR complex = target: T1, LIF/LIFR complex (Homo sapiens, UniProt P42702); test: Alpha Screen inhibition of LIFR/LIF binding (cell-free); conditions: for effect on LIF/LIFR complex formation (LIFR antagonism), in words: cell-free Alpha Screen; for IC50: cell-free, LIFR 4.5 nM, biotinylated LIF 9 nM, read-out: LIFR IC50 AlphaScreen (inhibition of LIFR/LIF binding)
T1 construct: purchased Sino Biological (LIFR); R&D Systems (LIF)
T1 sequence (P42702 45-833 limits assumed): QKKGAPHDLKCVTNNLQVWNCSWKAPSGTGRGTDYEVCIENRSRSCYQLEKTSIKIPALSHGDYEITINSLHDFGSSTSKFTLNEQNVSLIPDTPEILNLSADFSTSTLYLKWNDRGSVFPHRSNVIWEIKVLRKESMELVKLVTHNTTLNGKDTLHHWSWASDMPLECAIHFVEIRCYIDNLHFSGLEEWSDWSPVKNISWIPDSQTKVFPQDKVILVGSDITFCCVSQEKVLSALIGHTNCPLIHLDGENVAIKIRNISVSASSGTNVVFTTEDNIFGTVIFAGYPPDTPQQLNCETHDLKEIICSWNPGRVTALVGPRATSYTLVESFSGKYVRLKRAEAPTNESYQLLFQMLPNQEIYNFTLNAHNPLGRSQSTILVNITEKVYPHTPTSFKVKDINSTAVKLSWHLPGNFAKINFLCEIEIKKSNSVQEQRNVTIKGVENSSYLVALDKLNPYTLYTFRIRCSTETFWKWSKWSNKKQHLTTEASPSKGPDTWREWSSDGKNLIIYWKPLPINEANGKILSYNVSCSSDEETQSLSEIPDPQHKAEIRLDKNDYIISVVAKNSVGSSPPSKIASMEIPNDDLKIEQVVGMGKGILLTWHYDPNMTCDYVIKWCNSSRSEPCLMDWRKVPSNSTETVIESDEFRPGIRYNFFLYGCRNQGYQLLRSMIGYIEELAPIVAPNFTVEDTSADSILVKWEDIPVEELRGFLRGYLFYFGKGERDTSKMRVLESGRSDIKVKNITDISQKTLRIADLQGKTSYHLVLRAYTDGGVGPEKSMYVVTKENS
Description: Recombinant human LIFR (His Tag) and biotinylated recombinant human LIF were purchased from Sino Biologicals (Sino Biological Europe GmbH, Dusseldorf, Germany) and R&D Systems (Abingdon, UK), respectively, and both were reconstituted as required by the manufacturer. […] The assay was carried out in white, low-volume, 384-well AlphaPlates (PerkinElmer, Waltham, MA, USA) using a final volume of 25 µL and an assay buffer containing 25 mM Hepes (pH 7.4), 100 mM NaCl, and 0.005% Kathon. The concentration of DMSO in each well was maintained at 5%. […] Then, LIF was added (biotinylated, final concentration 9 nM), and the samples were incubated for 15 min prior to adding His-Tag acceptor beads (final concentration 20 ng/µL) for 30 min. Then, streptavidin donor beads were added (final concentration 20 ng/µL), and the plate was incubated in the dark for 2 h and then read in an EnSpire Alpha multimode plate reader (PerkinElmer, Waltham, MA, USA).

MIA PaCa-2 cells = test: Scratch wound healing assay; format: cell-based, human; conditions: LIF 10 ng/mL alone; 0, 24, 48 h
Description: MIA PaCa-2 cells were seeded in DMEM complete medium at […] cells/well into 24-well plate and used at 70-80% confluence rate. The assay was performed as previously described ([20]), particularly on the day 1, the cell monolayers were gently scraped vertically with a new 0.2 mL pipette tip across the centre of the well. After scratching, the well was gently washed twice with PBS (Euroclone, Milan, Italy) to remove the detached cells and cell debris and finally fresh medium containing LIF (10 ng/mL) alone or in combination with BAR502 (10 µM) or EC359 (25 nM) was added into each well. Immediately after scratch creation, the 24-plate was placed under a phase-contrast microscope and the first image of the scratch acquired (T0) with using a OPTIKAM Pro Cool 5 – 4083.CL5 camera. Cells were grown for additional 48 h and images taken at 24h (T1) and 48 h (T2). The gap distance between scarps borders was quantified by assessing that area between the two margins of the scratches. All experiments were performed in triplicate.

Compound	effect on LIF/LIFR complex formation (LIFR antagonism), in words (LIF/LIFR complex)	IC50 (LIF/LIFR complex) [µM]	reduction of the scratch area (wound closure) (MIA PaCa-2 cells)
C[C@H](CCC(=O)O)[C@H]1CC[C@H]2[C@@H]3[C@H](O)C[C@@H]4C[C@H](O)CC[C@]4(C)[C@H]3CC[C@]12C [CDCA, Chenodeoxycholic acid]	slight, thought significant, inhibitory effect; also recorded: weak LIFR antagonists	48	
Leukemia Inhibitory factor [LIF]			≈ 16%
C[C@H](CCC(=O)O)[C@H]1CC[C@H]2[C@@H]3CC[C@@H]4C[C@H](O)CC[C@]4(C)[C@H]3CC[C@]12C [LCA, Lithocholic acid]	slight, thought significant, inhibitory effect; also recorded: weak LIFR antagonists	48.3	

— publication PMC10043345, “Discovery of BAR502, as potent steroidal antagonist of leukemia inhibitory factor receptor for the treatment of pancreatic adenocarcinoma” (Frontiers in Oncology, 2023)
